43 compounds from PubChem BioAssay (NCI) can be followed below.

The structures appear in SMILES notation. “And” between values parts separate entries of the source, which are not always exact repeats. Identical values can stand only once.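 The compound was tested at five concentrations on cells cultured in 96-well plates, with a 48-hour exposure period. GI50 marks 50% less growth. TGI is the concentration that stops growth completely.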 Where a SMILES comes first, the peptide text is derived from it. [ ]: non-standard residue; d: D form. The star is where a group is joined. Decanoyl = CCCCCCCCCC(=O)*; Leu(ol) = CC(C)C[C@H](N)CO; Iva = CC[C@](C)(N)C(=O)O; Aib = CC(C)(N)C(=O)O

The experiment deals with MDA-MB-468 breast. Kind of experiment: DTP human tumour cell line panel, 48 h.
With `Cc1cc(N2CCOCC2)nc(N(CCCNc2ccnc3cc(Cl)ccc23)Cc2ccco2)n1`, the GI50 (in general, the concentration that inhibits growth by half) was 2.21 µM and the total growth inhibition concentration (TGI) (usually the concentration at which net growth stops) was 7.33 µM.
`CCC(=O)Nc1ccc(C)c(-c2ccc(C(=O)NCC3CC3)cc2)c1`: the GI50 was 14.9 µM and the TGI was over 25 µM.
On to `Cc1cc(-c2ccccn2)cc(C)c1/C=C/c1cncc(-c2nn[nH]n2)c1`, for which the GI50 is over 25 µM and the concentration for total growth inhibition (TGI) was over 25 µM.
Turning to `Cc1ccc(NC(=O)CSc2nnc3n(Cc4ccccc4)c(=O)c4c(C)c(C(N)=O)sc4n23)cc1`, the GI50 is 18.6 µM and the TGI is over 100 µM.
For `CCc1ccc(C(=Nc2ccc(N(C)C(=O)CN3CCN(C)CC3)cc2)c2c(O)[nH]c3ccc(C(=O)OC)cc23)cc1`, in that order: 0.73 µM and 2.35 µM.
For `O=[N+]([O-])c1cc(C(F)(F)F)ccc1Sc1ccc(C(F)(F)F)cc1[N+](=O)[O-]`, in that order: 3.67 µM and over 100 µM.
Regarding `CC1(N)CCN(c2cnc(-c3cccc(Cl)c3Cl)c(N)n2)CC1`, the GI50 was 2.58 µM and the TGI was 17.2 µM.
For `Oc1ccc(C2c3ccccc3Oc3ccccc32)c2cccnc12`, in that order: 0.644 µM and 4.53 µM.
For `C=C(CO)[C@@H]1CC[C@]2(COC3CCCCO3)CC[C@]3(C)[C@H](CC[C@@H]4[C@@]5(C)C=C(C=O)C(=O)C(C)(C)[C@@H]5CC[C@]43C)[C@@H]12` (stereo partly specified), in that order: 0.244 µM and 0.665 µM.
On to `COc1cc2nccc(Oc3ccc(NC(=O)Nc4cc(C)on4)c(Cl)c3)c2cc1OC`, for which the GI50 was 2.34 µM and 2.93 µM; the TGI was 8.09 µM and > 10 µM.
With `Nc1ccc(-c2cccs2)cc1NC(=O)c1ccc(CCCC(=O)Nc2ccc(C3CC3N)cc2)cc1` (stereo unspecified), the GI50 is 1.9 µM and the TGI was 4.37 µM.
For `CC1=C(C(=O)Nc2cc(Cl)c3[nH]ncc3c2)C(c2ccc(C(F)(F)F)cc2)CC(=O)N1` (stereo unspecified), in that order: 8.02 µM and over 25 µM.
For `CCOC(=O)c1ccc(NC2=C(Cl)C(=O)c3nc(C)ccc3C2=O)cc1`, in that order: 1.66 µM and 3.54 µM.
For `C[N+](C)(C)CC(=O)N/N=C(\C(=O)NC1=C(Cl)C(=O)c2ccccc2C1=O)C(C#N)c1nc(-c2ccc([N+](=O)[O-])cc2)cs1` (stereo unspecified), in that order: 3.89 µM and 16 µM.
Take `O=C(N/N=C/c1ccc(O)cc1O)c1cccc(Nc2ccnc(C(F)(F)F)c2)c1`: the GI50 was 0.626 µM and the TGI was over 58.3 µM.
For `Cc1ccc(C(=O)/C(=C\c2ccc([N+](=O)[O-])cc2)S(=O)Cc2ccc(Cl)cc2)cc1` (stereo unspecified), in that order: 1.74 µM and 3.44 µM.
Turning to `C/C(O)=C(\C#N)C(=O)Nc1ccc(C(F)(F)F)cc1`, the GI50 is 37.2 µM and the TGI is over 100 µM.
For `COc1ccc2c(c1)C(=O)/C(=C/c1ccc([N+](=O)[O-])o1)O2`, in that order: 0.818 µM and 2.56 µM.
With `NS(=O)(=O)NCCNc1nonc1C(=Nc1ccc(F)c(Br)c1)NO`, the GI50 was 23.5 µM and the TGI is 76.5 µM.
For the compound `COC(=O)c1ccc(NC2=C(Cl)C(=O)C(C)=C(C)C2=O)cc1`, the GI50 is 1.49 µM and the TGI was determined as 3.1 µM.
As for `OCCNc1nc(Nc2ccc(Cl)c(Cl)c2)nc2ccccc12`, the GI50 was 1.83 µM and the TGI came to 5.3 µM.
For `CN1CCN(c2ccc(NC(=O)c3cncnc3Nc3ccc(OCc4ccccn4)c(Cl)c3)cc2)CC1`, in that order: 3.88 µM and 9.39 µM.
For `C=C1C(=O)O[C@H]2[C@H]1CC/C(COC(=O)C(C)c1ccc(CC(C)C)cc1)=C\CC[C@@]1(C)O[C@@H]21` (stereo partly specified), in that order: 1.76 µM and 3.79 µM.
Take `N#C/C(=C\c1ccc(Br)cc1)n1nnc2cc(Cl)c(Cl)cc21`: the GI50 is 2.15 µM and the TGI was 5.13 µM.
For `CCCCCCCCCC(=O)N[C@@](C)(CC)C(=O)N1CCC[C@H]1C(=O)N[C@@H](CC(C)C)C(=O)N[C@@](C)(CC)C(=O)N[C@@H](CCC(N)=O)C(=O)N[C@H](CCC(N)=O)C(=O)NC(C)(C)C(=O)NC(C)(C)C(=O)N[C@@H](CCC(N)=O)C(=O)N[C@H](CC(C)C)C(=O)N[C@H](CO)CC(C)C` (Decanoyl-[Iva]PL[Iva]Q[dQ][Aib][Aib]Q[dL][Leu(ol)]), in that order: 1.77 µM and 3.49 µM.
`COc1cc(-c2csc(NC(=O)Nc3ccc(C(F)(F)F)cc3)n2)cc(OC)c1OC`: the GI50 is 1.72 µM and the TGI came to 5.71 µM.
For `C/C(=C\c1cc(C(F)(F)F)n(-c2ccc(N)cc2)n1)[C@@H]1C[C@@H]2O[C@]2(C)CCC[C@H](C)[C@H](O)[C@@H](C)C(=O)C(C)(C)[C@@H](O)CC(=O)O1`, in that order: 0.0336 µM and 0.231 µM.
For `CCCN(CCC)c1ccc(/C=N/NC(=O)c2cccnc2)c(OC)c1`, in that order: 6.22 µM and 58.9 µM.
For `O=C(/C=C/C12c3ccccc3C(c3ccccc31)C1C(=O)NC(=O)C12)c1ccc(F)cc1` (stereo unspecified), in that order: 1.99 µM and 4.1 µM.
For the compound `CC(CN(C)C)Oc1ccccc1NC1=C(Cl)C(=O)C(Nc2ccccc2OC(C)CN(C)C)=C(Cl)C1=O` (stereo unspecified), the GI50 was 0.163 µM and the TGI amounted to 0.328 µM.
For `CCOC(=O)C#Cc1c(C(=O)OCC)nnn1Cc1ccc([N+](=O)[O-])cc1`, in that order: 1.96 µM and 4.4 µM.
For `CCn1c(-c2nonc2N)nc2c(C#CC(C)(C)O)ncc(OC[C@H]3CCCNC3)c21`, in that order: 0.0872 µM and 18.9 µM.
For `O=C1C=CC(=O)N1c1cccc(N2C(=O)C=CC2=O)c1`, in that order: 1.88 µM and 3.99 µM.
As to `Cc1ccc(NS(=O)(=O)c2cccc(C#N)c2)c2[nH]cc(C#N)c12`, the GI50 was 4.44 µM and the TGI turned out to be 58.2 µM.
For `Oc1c(Cl)cc(Cl)cc1C(c1cc(Cl)cc(Cl)c1O)C(Cl)(Cl)Cl`, in that order: 2.17 µM and 7.63 µM.
For `CC(=[N-])N1CCC[C@@H](Nc2c3ccccc3nc3ccccc23)C1.[Cl][Pt].[NH-]CCC[NH-]`, in that order: 0.128 µM and 0.901 µM.
On to `CC(=O)O[C@H]1[C@@H]2OC(=O)C(CSc3ccccc3)[C@@H]2C[C@H]2O[C@]2(C)CC/C=C(\C)CCC[C@@H]1C` (stereo partly specified), for which the GI50 is 1.46 µM and the TGI is 3.62 µM.
For `O=C1/C(=C/c2ccc(Cl)cc2)CCC/C1=C\c1ccc(Cl)cc1`, in that order: 3.08 µM and 9.21 µM.
For `O=C(O)c1c(=O)cccc2ssc12`, in that order: 2.14 µM and 4.38 µM.
As to `Cc1cc2c(C(N)=O)c(N)n(-c3c(C)ccc(O)c3C)c2nc1C`, the GI50 was 8.69 µM and the concentration for total growth inhibition (TGI) was 29.7 µM.
For `CC1(C)NCCC[C@]2(C)[C@H]3CC[C@@H]4[C@H]5[C@H](C(=O)/C=C/c6ccccn6)CC[C@]5(CO)CC[C@@]4(C)[C@]3(C)CC[C@@H]12`, in that order: 2.08 µM and 4.77 µM.
For `CC([C@H]1CCC2C3CCC4C[C@@H](N)CC[C@]4(C)C3CC[C@@]21C)N(C)C` (stereo partly specified), in that order: 1.57 µM and 4.83 µM.
For `Clc1ccccc1CNc1c2ccccc2nc2ccccc12`, in that order: 1.12 µM and 3.04 µM.
